{
  "source": "paper PMC5322940",
  "about": "(Cell, 2016)",
  "key": {"[1]": {"biological_target": "hCB1 WT receptor (Homo sapiens, UniProt P21554)", "sequence (P21554 whole entry)": "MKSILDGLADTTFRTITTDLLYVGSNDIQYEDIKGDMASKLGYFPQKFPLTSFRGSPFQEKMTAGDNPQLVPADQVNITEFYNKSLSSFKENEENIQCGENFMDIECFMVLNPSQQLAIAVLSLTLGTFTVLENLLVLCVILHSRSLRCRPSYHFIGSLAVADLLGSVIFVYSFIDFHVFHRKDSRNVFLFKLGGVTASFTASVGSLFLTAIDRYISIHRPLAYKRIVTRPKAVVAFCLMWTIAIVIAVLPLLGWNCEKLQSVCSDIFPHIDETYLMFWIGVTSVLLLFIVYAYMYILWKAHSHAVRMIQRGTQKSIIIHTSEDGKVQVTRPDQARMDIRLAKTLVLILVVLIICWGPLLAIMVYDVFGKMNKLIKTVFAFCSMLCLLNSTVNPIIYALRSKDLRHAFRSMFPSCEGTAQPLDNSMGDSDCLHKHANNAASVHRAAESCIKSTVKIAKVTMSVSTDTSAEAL", "assay": "biochemical", "type": "binding"}, "[2]": {"biological_target": "WT CB1 (Homo sapiens, UniProt P21554)", "sequence (P21554 whole entry)": "as above", "assay": "Wash out experiment followed by [3H]-CP55,940 saturation binding"}, "[3]": {"biological_target": "T1, hCB1R (Homo sapiens, UniProt P21554)", "T1 sequence (P21554 whole entry)": "as above", "type": "cell-based"}, "[4]": {"biological_target": "T1, hCB1R", "type": "cell-based", "remark": "listed apart in the source"}, "[5]": {"biological_target": "CB1 (Mus musculus, UniProt P47746)", "sequence (P47746 whole entry)": "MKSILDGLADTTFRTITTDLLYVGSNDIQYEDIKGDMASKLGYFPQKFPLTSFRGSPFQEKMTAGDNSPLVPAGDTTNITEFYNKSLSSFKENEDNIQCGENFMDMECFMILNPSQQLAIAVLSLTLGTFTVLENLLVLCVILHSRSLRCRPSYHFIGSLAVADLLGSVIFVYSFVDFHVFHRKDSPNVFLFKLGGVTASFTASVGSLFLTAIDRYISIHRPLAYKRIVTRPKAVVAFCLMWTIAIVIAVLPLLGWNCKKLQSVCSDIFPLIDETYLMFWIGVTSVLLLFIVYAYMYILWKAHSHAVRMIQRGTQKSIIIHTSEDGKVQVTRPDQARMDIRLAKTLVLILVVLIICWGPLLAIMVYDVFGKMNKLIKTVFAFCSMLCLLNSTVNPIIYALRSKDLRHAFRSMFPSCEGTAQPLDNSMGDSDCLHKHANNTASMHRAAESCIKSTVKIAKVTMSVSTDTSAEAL", "assay": "[35S]GTPγS binding to CB1 in C57 mouse cerebellum membranes", "type": "biochemical"}, "[6]": {"test_system": "hCB1 Phe170^2.57Ala or Phe174^2.61Ala", "assay": "Functional studies in mutant hCB1-CHO cells, Phe170Ala or Phe174Ala", "type": "cell-based, human"}, "[7]": {"test_system": "CB1", "settings": "cited from earlier work"}, "[8]": {"test_system": "hCB1 Phe170^2.57Trp or Phe174^2.61Trp", "assay": "Functional studies in mutant hCB1-CHO cells, Phe170Trp or Phe174Trp", "type": "cell-based, human", "settings": "Phe170Ala/Trp or Phe174Ala/Trp vs WT"}, "[9]": {"settings": "agonist, mouse cerebellum, mean ± S.E.M."}},
  "data": [
    {"compound": "Cc1c(C(=O)NN2CCCCC2)nn(-c2ccc(Cl)cc2Cl)c1-c1ccc(C#CCCO[N+](=O)[O-])cc1", "note": "[AM6538, 4-(4-(1-(2,4-dichlorophenyl)-4-methyl-3-(piperidin-1-ylcarbamoyl)-1H-pyrazol-5-yl)phenyl)but-3-yn-1-yl nitrate]", "values": [
      {"measurement": "Ki", "setting": "[1]", "result": "0.0034 ± 0.001", "unit": "µM"},
      {"measurement": "Percentage of remaining binding (Bmax) of [3H]-CP55,940", "setting": "[1]", "result": "~ 30%"},
      {"measurement": "Effect on subsequent [3H]-CP55,940 binding after pretreatment and washout", "setting": "[2]", "result": "wash-resistant binding"},
      {"measurement": "Mode of antagonism of CB1-mediated inhibition of adenylyl cyclase activity", "setting": "[3]", "result": "competitive antagonist"},
      {"measurement": "Mode of antagonism of β-arrestin2 recruitment", "setting": "[4]", "result": "competitive antagonist"},
      {"measurement": "Mode of antagonism of [35S]-GTPγS binding", "setting": "[5]", "result": "Competitive antagonism was confirmed"},
      {"measurement": "Effect of mutation on antagonist functional affinity", "setting": "[6]", "result": "dramatically reduced functional affinity"}
    ]},
    {"compound": "Cc1c(C(=O)NN2CCS(=O)(=O)CC2)nn(-c2ccc(Cl)cc2Cl)c1-c1ccc(C#CCCC#N)cc1", "note": "[AM6545]", "values": [
      {"measurement": "Affinity and mode of action at CB1", "setting": "[7]; ref Tam et al., 2010", "result": "high affinity CB1 neutral antagonist"}
    ]},
    {"compound": "CCCCCCC(C)(C)c1ccc([C@@H]2C[C@H](O)CC[C@H]2CCCO)c(O)c1", "note": "[CP55,940]", "values": [
      {"measurement": "EC50", "setting": "[5]; [9]", "result": "0.063 ± 0.0055", "unit": "µM"},
      {"measurement": "Emax", "setting": "[5]; [9]", "result": "2.40 ± 0.04", "unit": "fold over baseline"},
      {"measurement": "Effect of mutation on agonist potency", "setting": "[6]; Phe170Ala or Phe174Ala vs WT", "result": "neither mutation alters the potency"},
      {"measurement": "Effect of mutation on agonist potency", "setting": "[8]", "result": "do not alter the potency"}
    ]},
    {"compound": "C[C@H](NC(=O)C(C)(C)Oc1ccc(C(F)(F)F)cn1)[C@@H](Cc1ccc(Cl)cc1)c1cccc(C#N)c1", "note": "[Taranabant]", "values": [
      {"measurement": "Affinity with CB1", "setting": "[7]; among rimonabant, otenabant and taranabant, ref Table S2", "result": "highest affinity"}
    ]},
    {"compound": "Cc1c(C(=O)NN2CCCCC2)nn(-c2ccc(Cl)cc2Cl)c1-c1ccc(Cl)cc1", "note": "[rimonabant]", "values": [
      {"measurement": "Effect of mutation on antagonist functional affinity", "setting": "[6]", "result": "dramatically reduced functional affinity"}
    ]}
  ]
}
